Assays:
human TG6 (T021; Zedira) [1] = biological target: T1, human TG6 (T021; Zedira) (Homo sapiens, UniProt O95932); experiment: fluorescence isopeptidase; type: biochemical
T1 sequence (O95932 1-706): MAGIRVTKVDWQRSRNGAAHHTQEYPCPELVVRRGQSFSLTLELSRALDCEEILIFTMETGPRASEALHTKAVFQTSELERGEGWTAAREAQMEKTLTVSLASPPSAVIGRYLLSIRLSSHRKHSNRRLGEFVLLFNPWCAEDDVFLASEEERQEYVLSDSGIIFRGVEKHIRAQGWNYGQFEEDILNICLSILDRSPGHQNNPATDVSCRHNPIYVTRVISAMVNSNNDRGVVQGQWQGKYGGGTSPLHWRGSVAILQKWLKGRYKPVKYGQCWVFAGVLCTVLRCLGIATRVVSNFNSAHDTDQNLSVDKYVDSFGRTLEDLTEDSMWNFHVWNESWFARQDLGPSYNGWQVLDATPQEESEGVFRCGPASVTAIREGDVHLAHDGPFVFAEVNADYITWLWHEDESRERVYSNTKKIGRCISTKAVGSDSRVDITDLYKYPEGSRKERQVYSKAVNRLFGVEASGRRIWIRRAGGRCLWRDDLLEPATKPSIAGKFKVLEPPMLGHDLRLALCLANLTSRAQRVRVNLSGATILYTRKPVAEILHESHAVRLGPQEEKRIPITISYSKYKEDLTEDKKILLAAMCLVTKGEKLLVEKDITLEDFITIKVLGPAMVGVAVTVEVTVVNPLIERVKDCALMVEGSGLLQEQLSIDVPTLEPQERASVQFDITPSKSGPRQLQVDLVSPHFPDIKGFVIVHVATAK

human TG6 (T021; Zedira) [2] = biological target: T1, human TG6 (T021; Zedira); experiment: fluorescence isopeptidase; type: biochemical; details: 37°C, Ca2+-activated; allosteric

SMILES | IC50 (human TG6 (T021; Zedira) [1]) | half-maximal inhibition (human TG6 (T021; Zedira) [2])
Nc1ncnc2c1ncn2[C@@H]1O[C@H](COP(=O)(O)OP(=O)(O)OP(=O)(O)O)[C@@H](O)[C@H]1O [ATP] | ~1000 µM | 
Nc1nc2c(ncn2[C@@H]2O[C@H](COP(=O)(O)OP(=O)(O)O)[C@@H](O)[C@H]2O)c(=O)[nH]1 [GDP] |  | Activity of TG6 is inhibited to a similar degree by GTP and GDP
Nc1nc2c(ncn2[C@@H]2O[C@H](COP(=O)(O)O)[C@@H](O)[C@H]2O)c(=O)[nH]1 [GMP] |  | but the affinity for GMP is low
Nc1nc2c(ncn2[C@@H]2O[C@H](COP(=O)(O)OP(=O)(O)OP(=O)(O)O)[C@@H](O)[C@H]2O)c(=O)[nH]1 [GTP] | 200 µM | 
Nc1nc2c(ncn2[C@@H]2O[C@H](COP(=O)(O)OP(=O)(O)OP(O)(O)=S)[C@@H](O)[C@H]2O)c(=O)[nH]1 [GTPγS] |  | The non-hydrolyzable GTP analogue GTPγS is a more effective inhibitor than GTP

From article PMC3535377 (Amino Acids, 2011)
